Measured values as given in the NIST ThermoML archive (doi:10.1016/j.fluid.2013.10.038).

Assay: excess molar enthalpy (molar enthalpy of mixing); xn = mol fraction of the nth substance listed
Conditions: Liquid, Flow calorimetry

CCOC(C)=O [ethyl acetate] + O=C=O
excess molar enthalpy [kJ/mol]
Conditions | 298.15 K | 303.15 K | 308.15 K
5000 kPa, x2 = 0.099 | -1.19 | -1.23 | -1.45
5000 kPa, x2 = 0.199 | -2.37 | -2.44 | -2.33
5000 kPa, x2 = 0.3 | -3.5 | -3.64 | -3.51
5000 kPa, x2 = 0.4 | -4.63 | -4.75 | -4.61
5000 kPa, x2 = 0.5 | -5.72 | – | –
6000 kPa, x2 = 0.101 | -1.05 | -1.15 | -1.15
6000 kPa, x2 = 0.2 | -2.14 | -2.24 | -2.27
6000 kPa, x2 = 0.3 | -3.17 | -3.32 | -3.31
6000 kPa, x2 = 0.399 | -4.12 | -4.34 | -4.38
6000 kPa, x2 = 0.5 | -5.08 | -5.31 | –
7000 kPa, x2 = 0.1 | -0.383 | -0.903 | -0.994
7000 kPa, x2 = 0.2 | -0.7 | -1.81 | -1.98
7000 kPa, x2 = 0.299 | -1 | -2.71 | -2.96
7000 kPa, x2 = 0.4 | -1.27 | -3.55 | -3.88
7000 kPa, x2 = 0.5 | – | -4.28 | -4.73
